Measurements as given in patent publication US12612650B2, “Methods for improved homologous recombination and compositions thereof” (LIFE TECHNOLOGIES CORPORATION, priority 2017, dated 2026).

Test system: genomic locus of beta-actin
Assay: OFP-positive cells by flow cytometry after electroporation of Cas9 RNP and donor DNA into human primary T cells
Format: cell-based
Conditions: 30 μM, 48 hours
Protocol: Human peripheral blood mononuclear cells (PBMCs) were isolated from peripheral blood using Ficoll-Paque PLUS density gradient according to manufacturer's instructions. The human primary T cells were then isolated using DYNABEADS™ UNTOUCHED™ Human T Cells Kit and expanded using OPTMIZER™ CTS™ T-Cell Expansion SFM supplemented with 200 IU/mL of IL-2. The activation and expansion of human T cells were carried out using DYNABEADS™ Human T-Expander CD3/CD28 kit. On day 3 of activation, T cells were harvested for transfection.
For transfection of primary T cells, 1×10^5 cells were used per NEON® electroporation with voltage set at 1700V, pulse width set at 20 ms, and the number of pulses set at 1, respectively. […] Cells were analyzed at 48 hours post transfection.
Traditionally, a plasmid donor was used to incorporate large DNA molecules into the genome. […] At 48 hours post transfection, we analyzed the percentages of OFP-positive cells using flow cytometry. […]
Linear ds- or ss-DNA donor could be degraded in vivo by exonucleases. […] At 48 hours post transfection, the percentages of OFP-positive cells were determined by flow cytometric analysis. […]
The disruption of NHEJ repair pathway is known to improve HDR efficiency. […] At 48 hours post transfection, we analyzed the cells by flow cytometry.

Q: `O=c1cc(N2CCOCC2)oc2c1ccc1ccccc12` [Nu7026, 2-(4-Morpholinyl)-4H-naphthol[1,2-b]pyran-4-one] was tested. Which “increase of the percentage of OFP-positive cells” value (amine-modified donor DNA) did it give?
A: ~2 fold

Q: What about the “increase of the percentage of OFP-positive cells” value (unmodified donor DNA) of the same molecule?
A: approximately 5 fold
